# PubChem BioAssay (NCI)
#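 Five compound concentrations were applied to cells in 96-well plates for 48 hours; endpoints were derived by simple linear interpolation of the resulting dose-response curve. GI50 is the concentration that inhibits growth by half. TGI: concentration producing complete growth inhibition.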
# Assays:
# Assay in all cases: growth of human tumour cells (NCI), 48 h
# 786-0 renal = test system: 786-0 renal
# A498 renal = test system: A498 renal
# A549 NSCLC = test system: A549 NSCLC
# ACHN renal = test system: ACHN renal
# BT-549 breast = test system: BT-549 breast
# CAKI-1 renal = test system: CAKI-1 renal
# CCRF-CEM leukemia = test system: CCRF-CEM leukemia
# COLO 205 colon = test system: COLO 205 colon
# DU-145 prostate = test system: DU-145 prostate
# EKVX NSCLC = test system: EKVX NSCLC
# HCC-2998 colon = test system: HCC-2998 colon
# HCT-116 colon = test system: HCT-116 colon
# HCT-15 colon = test system: HCT-15 colon
# HL-60(TB) leukemia = test system: HL-60(TB) leukemia
# HOP-62 NSCLC = test system: HOP-62 NSCLC
# HOP-92 NSCLC = test system: HOP-92 NSCLC
# HS 578T breast = test system: HS 578T breast
# HT29 colon = test system: HT29 colon
# IGROV1 ovarian = test system: IGROV1 ovarian
# K-562 leukemia = test system: K-562 leukemia
# KM12 colon = test system: KM12 colon
# LOX IMVI melanoma = test system: LOX IMVI melanoma
# M14 melanoma = test system: M14 melanoma
# MALME-3M melanoma = test system: MALME-3M melanoma
# MCF7 breast = test system: MCF7 breast
# MDA-MB-231 breast = test system: MDA-MB-231 breast
# MDA-MB-435 = test system: MDA-MB-435
# MDA-MB-468 breast = test system: MDA-MB-468 breast
# MOLT-4 leukemia = test system: MOLT-4 leukemia
# NCI-H226 lung = test system: NCI-H226 lung
# NCI-H23 lung = test system: NCI-H23 lung
# NCI-H460 lung = test system: NCI-H460 lung
# NCI-H522 lung = test system: NCI-H522 lung
# NCI/ADR-RES ovarian = test system: NCI/ADR-RES ovarian
# OVCAR-3 ovarian = test system: OVCAR-3 ovarian
# OVCAR-4 ovarian = test system: OVCAR-4 ovarian
# OVCAR-5 ovarian = test system: OVCAR-5 ovarian
# OVCAR-8 ovarian = test system: OVCAR-8 ovarian
# PC-3 prostate = test system: PC-3 prostate
# RPMI-8226 leukemia = test system: RPMI-8226 leukemia
# RXF 393 renal = test system: RXF 393 renal
# SF-268 CNS = test system: SF-268 CNS
# SF-295 CNS = test system: SF-295 CNS
# SF-539 CNS = test system: SF-539 CNS
# SK-MEL-2 melanoma = test system: SK-MEL-2 melanoma
# SK-MEL-28 melanoma = test system: SK-MEL-28 melanoma
# SK-MEL-5 melanoma = test system: SK-MEL-5 melanoma
# SK-OV-3 ovarian = test system: SK-OV-3 ovarian
# SN12C renal = test system: SN12C renal
# SNB-19 CNS = test system: SNB-19 CNS
# SNB-75 CNS = test system: SNB-75 CNS
# SR leukemia = test system: SR leukemia
# SW-620 colon = test system: SW-620 colon
# T-47D breast = test system: T-47D breast
# TK-10 renal = test system: TK-10 renal
# U251 CNS = test system: U251 CNS
# UACC-62 melanoma = test system: UACC-62 melanoma
# UO-31 renal = test system: UO-31 renal
smiles,measurement,setting,value
Cc1ccc(Nc2nnc(-c3c[nH]c4ccccc34)o2)c(C)c1,GI50,786-0 renal,0.768 µM
same,TGI,786-0 renal,11.3 µM
same,GI50,A498 renal,18.2 µM
same,TGI,A498 renal,56.6 µM
same,GI50,A549 NSCLC,0.868 µM
same,TGI,A549 NSCLC,> 100 µM
same,GI50,ACHN renal,0.564 µM
same,TGI,ACHN renal,30.6 µM
same,GI50,BT-549 breast,0.435 µM
same,TGI,BT-549 breast,19.9 µM
same,GI50,CAKI-1 renal,0.483 µM
same,TGI,CAKI-1 renal,38.9 µM
same,GI50,CCRF-CEM leukemia,0.311 µM
same,TGI,CCRF-CEM leukemia,> 35.1 µM
same,GI50,COLO 205 colon,0.447 µM
same,TGI,COLO 205 colon,2.95 µM
same,GI50,DU-145 prostate,0.664 µM
same,TGI,DU-145 prostate,> 45.3 µM
same,GI50,EKVX NSCLC,0.455 µM
same,TGI,EKVX NSCLC,> 73.1 µM
same,GI50,HCC-2998 colon,0.625 µM
same,TGI,HCC-2998 colon,4.56 µM
same,GI50,HCT-116 colon,0.645 µM
same,TGI,HCT-116 colon,29.2 µM
same,GI50,HCT-15 colon,0.17 µM
same,TGI,HCT-15 colon,16.7 µM
same,GI50,HL-60(TB) leukemia,0.274 µM
same,TGI,HL-60(TB) leukemia,17.8 µM
same,GI50,HOP-62 NSCLC,0.475 µM
same,TGI,HOP-62 NSCLC,24.3 µM
same,GI50,HOP-92 NSCLC,8.53 µM
same,TGI,HOP-92 NSCLC,43.6 µM
same,GI50,HS 578T breast,0.333 µM
same,TGI,HS 578T breast,9.17 µM
same,GI50,HT29 colon,0.326 µM
same,TGI,HT29 colon,2.78 µM
same,GI50,IGROV1 ovarian,0.569 µM
same,TGI,IGROV1 ovarian,20.4 µM
same,GI50,K-562 leukemia,0.0801 µM
same,TGI,K-562 leukemia,> 100 µM
same,GI50,KM12 colon,0.435 µM
same,TGI,KM12 colon,14.5 µM
same,GI50,LOX IMVI melanoma,0.478 µM
same,TGI,LOX IMVI melanoma,7.43 µM
same,GI50,M14 melanoma,0.324 µM
same,TGI,M14 melanoma,16 µM
same,GI50,MALME-3M melanoma,0.323 µM
same,TGI,MALME-3M melanoma,18.8 µM
same,GI50,MCF7 breast,0.283 µM
same,TGI,MCF7 breast,13.2 µM
same,GI50,MDA-MB-231 breast,0.62 µM
same,TGI,MDA-MB-231 breast,15.9 µM
same,GI50,MDA-MB-435,0.046 µM
same,TGI,MDA-MB-435,0.25 µM
same,GI50,MDA-MB-468 breast,0.3 µM
same,TGI,MDA-MB-468 breast,1.03 µM
same,GI50,MOLT-4 leukemia,0.478 µM
same,TGI,MOLT-4 leukemia,46.2 µM
same,GI50,NCI-H226 lung,1.45 µM
same,TGI,NCI-H226 lung,> 100 µM
same,GI50,NCI-H23 lung,0.445 µM
same,TGI,NCI-H23 lung,12.7 µM
same,GI50,NCI-H460 lung,0.443 µM
same,TGI,NCI-H460 lung,13.6 µM
same,GI50,NCI-H522 lung,0.163 µM
same,TGI,NCI-H522 lung,1.21 µM
same,GI50,NCI/ADR-RES ovarian,0.109 µM
same,TGI,NCI/ADR-RES ovarian,0.484 µM
same,GI50,OVCAR-3 ovarian,0.307 µM
same,TGI,OVCAR-3 ovarian,3.53 µM
same,GI50,OVCAR-4 ovarian,14.9 µM
same,TGI,OVCAR-4 ovarian,> 100 µM
same,GI50,OVCAR-5 ovarian,0.756 µM
same,TGI,OVCAR-5 ovarian,24.2 µM
same,GI50,OVCAR-8 ovarian,0.463 µM
same,TGI,OVCAR-8 ovarian,9.1 µM
same,GI50,PC-3 prostate,0.583 µM
same,TGI,PC-3 prostate,> 100 µM
same,GI50,RPMI-8226 leukemia,0.424 µM
same,TGI,RPMI-8226 leukemia,> 39.1 µM
same,GI50,RXF 393 renal,0.375 µM
same,TGI,RXF 393 renal,7.44 µM
same,GI50,SF-268 CNS,0.714 µM
same,TGI,SF-268 CNS,30.9 µM
same,GI50,SF-295 CNS,0.236 µM
same,TGI,SF-295 CNS,3.24 µM
same,GI50,SF-539 CNS,0.286 µM
same,TGI,SF-539 CNS,0.932 µM
same,GI50,SK-MEL-2 melanoma,0.302 µM
same,TGI,SK-MEL-2 melanoma,13.3 µM
same,GI50,SK-MEL-28 melanoma,0.639 µM
same,TGI,SK-MEL-28 melanoma,31.8 µM
same,GI50,SK-MEL-5 melanoma,0.353 µM
same,TGI,SK-MEL-5 melanoma,15 µM
same,GI50,SK-OV-3 ovarian,0.502 µM
same,TGI,SK-OV-3 ovarian,23.8 µM
same,GI50,SN12C renal,0.522 µM
same,TGI,SN12C renal,16.5 µM
same,GI50,SNB-19 CNS,0.512 µM
same,TGI,SNB-19 CNS,43.7 µM
same,GI50,SNB-75 CNS,0.255 µM
same,TGI,SNB-75 CNS,0.968 µM
same,GI50,SR leukemia,0.141 µM
same,TGI,SR leukemia,> 100 µM
same,GI50,SW-620 colon,0.325 µM
same,TGI,SW-620 colon,> 100 µM
same,GI50,T-47D breast,0.325 µM
same,TGI,T-47D breast,> 100 µM
same,GI50,TK-10 renal,4.03 µM
same,TGI,TK-10 renal,> 100 µM
same,GI50,U251 CNS,0.394 µM
same,TGI,U251 CNS,15.4 µM
same,GI50,UACC-62 melanoma,0.277 µM
same,TGI,UACC-62 melanoma,12.2 µM
same,GI50,UO-31 renal,0.53 µM
same,TGI,UO-31 renal,57 µM
